Laboratory results as given in article PMC9553805 (Clinical Pharmacokinetics, 2022).
“And” between values parts separate entries of the source, which are not always exact repeats. Equal entries are not always repeated. Where two headings read alike, the source gives them in different places.

What was measured:
[1] = target: T1, CYP3A4 (Homo sapiens, UniProt P08684); test: Part D: effect of steady-state tucatinib on pharmacokinetics of midazolam; conditions: for clinical classification as inhibitor of CYP3A/CYP3A4: steady-state tucatinib 300 mg BID, midazolam probe
[2] = target: T1, CYP3A4; test: Part A: effect of itraconazole; format: in vivo
[3] = humans, cited from earlier work
[4] = target: T2, CYP2C8 (Homo sapiens, UniProt P10632)
T2 sequence (P10632 1-490): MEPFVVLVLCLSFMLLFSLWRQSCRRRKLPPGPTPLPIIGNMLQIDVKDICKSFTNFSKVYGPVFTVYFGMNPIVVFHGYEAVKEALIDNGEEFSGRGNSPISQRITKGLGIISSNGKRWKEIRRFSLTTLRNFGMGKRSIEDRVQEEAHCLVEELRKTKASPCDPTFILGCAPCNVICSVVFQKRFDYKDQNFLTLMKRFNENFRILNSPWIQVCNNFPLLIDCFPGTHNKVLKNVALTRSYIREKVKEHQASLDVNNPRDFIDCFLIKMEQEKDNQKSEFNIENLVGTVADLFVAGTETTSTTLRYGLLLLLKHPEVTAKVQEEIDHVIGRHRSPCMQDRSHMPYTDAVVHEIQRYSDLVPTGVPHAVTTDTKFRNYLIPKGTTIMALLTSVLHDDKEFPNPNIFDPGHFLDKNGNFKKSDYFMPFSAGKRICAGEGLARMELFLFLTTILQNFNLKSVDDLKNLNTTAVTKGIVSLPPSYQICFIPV

[5] = system: CYP3A4/CYP2C8; test: Part B: effect of rifampin; format: in vivo, human
[6] = target: T2, CYP2C8; conditions: for clinical classification as inhibitor of CYP2C8: steady-state tucatinib 300 mg BID, repaglinide probe
[7] = target: CYP2C9 (Homo sapiens, UniProt P11712); test: Part D: effect of steady-state tucatinib on pharmacokinetics of tolbutamide
[8] = target: P-glycoprotein (P-gp) (Homo sapiens, UniProt P08183); test: Part E: effect of steady-state tucatinib on pharmacokinetics of digoxin; format: in vivo; conditions: for clinical classification as inhibitor of P-glycoprotein: steady-state tucatinib 300 mg BID, digoxin probe
[9] = system: CYP2C9; conditions: in vitro; cited from earlier work
[10] = system: P-glycoprotein (P-gp); conditions: in vitro; cited from earlier work
[11] = Safety assessments; format: in vivo, human
[12] = system: CYP2C8; conditions: in vitro; cited from earlier work
[13] = system: CYP3A4; conditions: in vitro; cited from earlier work
[14] = system: CYP2C8; format: in vivo, human; conditions: 84 subjects enrolled in this study; regardless of phenotype
[15] = cited from earlier work
[16] = tolbutamide/midazolam + tucatinib vs tolbutamide/midazolam alone
[17] = with tucatinib vs tolbutamide/midazolam alone
[18] = coadministration of itraconazole vs tucatinib alone
[19] = following gemfibrozil vs tucatinib alone
[20] = in the presence of rifampin vs tucatinib alone
[21] = digoxin + tucatinib vs digoxin alone
[22] = tucatinib + itraconazole vs tucatinib alone
[23] = tucatinib + gemfibrozil vs tucatinib alone
[24] = tucatinib + rifampin vs tucatinib alone

P-glycoprotein (P-gp) (Homo sapiens, UniProt P08183), sequence (P08183 whole entry): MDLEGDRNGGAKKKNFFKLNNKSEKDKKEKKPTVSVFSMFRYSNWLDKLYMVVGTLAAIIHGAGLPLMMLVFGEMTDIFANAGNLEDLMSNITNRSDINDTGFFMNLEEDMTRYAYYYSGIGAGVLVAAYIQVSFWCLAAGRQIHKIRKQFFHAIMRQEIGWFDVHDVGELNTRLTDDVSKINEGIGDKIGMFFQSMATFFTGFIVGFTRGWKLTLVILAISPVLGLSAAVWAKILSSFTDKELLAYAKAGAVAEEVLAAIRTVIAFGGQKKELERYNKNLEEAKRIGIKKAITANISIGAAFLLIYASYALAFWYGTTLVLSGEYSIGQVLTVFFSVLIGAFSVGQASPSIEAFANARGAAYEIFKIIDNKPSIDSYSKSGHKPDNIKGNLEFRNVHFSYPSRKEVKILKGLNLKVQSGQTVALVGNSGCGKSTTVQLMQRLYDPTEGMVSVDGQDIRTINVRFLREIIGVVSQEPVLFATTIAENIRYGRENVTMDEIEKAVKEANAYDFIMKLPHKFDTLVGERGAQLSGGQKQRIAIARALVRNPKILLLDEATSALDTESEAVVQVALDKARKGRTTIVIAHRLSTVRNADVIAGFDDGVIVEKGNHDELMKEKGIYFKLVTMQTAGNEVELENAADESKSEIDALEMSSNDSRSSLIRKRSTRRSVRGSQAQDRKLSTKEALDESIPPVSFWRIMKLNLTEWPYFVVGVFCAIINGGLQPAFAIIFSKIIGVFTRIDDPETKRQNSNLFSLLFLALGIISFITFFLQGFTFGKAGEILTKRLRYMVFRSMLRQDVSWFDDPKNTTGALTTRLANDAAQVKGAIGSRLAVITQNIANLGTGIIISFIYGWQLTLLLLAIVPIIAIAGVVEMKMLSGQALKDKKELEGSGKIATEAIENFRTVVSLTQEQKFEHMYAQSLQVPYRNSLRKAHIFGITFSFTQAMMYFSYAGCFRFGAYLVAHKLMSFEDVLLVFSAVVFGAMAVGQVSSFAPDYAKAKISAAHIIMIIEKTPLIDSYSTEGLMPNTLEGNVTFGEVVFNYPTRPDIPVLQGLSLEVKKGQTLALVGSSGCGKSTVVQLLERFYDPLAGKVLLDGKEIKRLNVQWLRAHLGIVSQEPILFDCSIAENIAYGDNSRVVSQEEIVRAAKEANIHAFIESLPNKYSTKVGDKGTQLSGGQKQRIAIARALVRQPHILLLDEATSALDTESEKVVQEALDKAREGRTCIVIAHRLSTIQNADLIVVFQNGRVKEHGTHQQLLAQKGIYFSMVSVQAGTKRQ
T1 sequence (P08684 whole entry): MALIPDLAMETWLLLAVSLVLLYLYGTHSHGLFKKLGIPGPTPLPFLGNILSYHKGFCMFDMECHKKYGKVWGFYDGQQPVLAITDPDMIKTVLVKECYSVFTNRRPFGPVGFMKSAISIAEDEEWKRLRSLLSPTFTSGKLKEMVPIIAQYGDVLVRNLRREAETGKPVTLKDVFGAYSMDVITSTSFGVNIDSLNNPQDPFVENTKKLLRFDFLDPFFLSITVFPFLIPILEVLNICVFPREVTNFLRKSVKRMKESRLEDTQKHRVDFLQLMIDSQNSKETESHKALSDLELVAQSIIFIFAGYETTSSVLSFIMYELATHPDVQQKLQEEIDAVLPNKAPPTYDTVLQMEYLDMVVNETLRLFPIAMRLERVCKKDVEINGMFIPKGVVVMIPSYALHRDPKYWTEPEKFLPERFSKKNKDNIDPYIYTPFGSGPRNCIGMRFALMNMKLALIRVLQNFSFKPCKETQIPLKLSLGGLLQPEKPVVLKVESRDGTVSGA
CYP2C9 (Homo sapiens, UniProt P11712), sequence (P11712 whole entry): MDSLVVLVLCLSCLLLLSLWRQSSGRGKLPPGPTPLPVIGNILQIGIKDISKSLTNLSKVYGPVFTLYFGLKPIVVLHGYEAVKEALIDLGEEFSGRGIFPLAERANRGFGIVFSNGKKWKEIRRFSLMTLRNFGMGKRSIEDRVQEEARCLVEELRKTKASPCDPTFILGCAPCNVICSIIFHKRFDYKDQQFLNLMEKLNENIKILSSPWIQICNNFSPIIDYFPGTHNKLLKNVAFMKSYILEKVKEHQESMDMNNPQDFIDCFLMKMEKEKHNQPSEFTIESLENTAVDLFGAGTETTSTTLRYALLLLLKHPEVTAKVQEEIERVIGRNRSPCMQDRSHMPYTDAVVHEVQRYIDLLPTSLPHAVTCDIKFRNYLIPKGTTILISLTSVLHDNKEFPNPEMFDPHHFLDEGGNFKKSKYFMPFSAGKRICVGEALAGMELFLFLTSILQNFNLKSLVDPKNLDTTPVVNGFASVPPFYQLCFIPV

## Cc1ncc2n1-c1ccc(Cl)cc1C(c1ccccc1F)=NC2 [Midazolam, midazolam]
[1]; [16]
  increase in plasma exposure based on AUC0–inf: 5.7 fold and > 5 fold
  increase in plasma exposure based on AUC0–last: 5.3 fold
  increase in plasma exposure based on Cmax: 3.0 fold
[1]; [17]
  reduction of metabolic ratio for AUC0–inf: approximately 83%
  reduction of metabolic ratio for Cmax: ~80%

## Cc1cc(Nc2ncnc3ccc(NC4=NC(C)(CO)CO4)cc23)ccc1Oc1ccn2ncnc2c1 (stereo not shown) [ONT-993]
[2]; [18]
  geometric least squares mean ratio for AUC0–inf: 1.6
  geometric least squares mean ratio for Cmax: 2.0
[3]; feces
  radioactive component in feces, share of the dose: 37%
[3]; urine
  radioactive component in urine, share of the dose: 1.5%
[4]; [19]
  decrease of metabolic ratio for AUC0–inf: approximately 71%
  decrease of metabolic ratio for Cmax: ~81%
[5]; [20]
  metabolic ratio for AUC0–inf, fold higher: 1.4 fold
  metabolic ratio for Cmax, fold higher: 3.3 fold

## CCOc1cc(CC(=O)N[C@@H](CC(C)C)c2ccccc2N2CCCCC2)ccc1C(=O)O [Repaglinide, repaglinide, reference compound]
[6]; repaglinide + tucatinib vs repaglinide alone
  increase in plasma exposure based on Cmax: ~1.7 fold

## CCCCNC(=O)NS(=O)(=O)c1ccc(CO)cc1 [4-hydroxytolbutamide, reference compound]
[7]; [16]
  plasma exposures with vs without tucatinib: Similar

## C[C@H]1O[C@@H](O[C@H]2[C@@H](O)C[C@H](O[C@H]3[C@@H](O)C[C@H](O[C@H]4CC[C@@]5(C)[C@H](CC[C@@H]6[C@@H]5C[C@@H](O)[C@]5(C)[C@@H](C7=CC(=O)OC7)CC[C@]65O)C4)O[C@@H]3C)O[C@@H]2C)C[C@H](O)[C@@H]1O [Digoxin, digoxin]
[8]; [21]
  increase in plasma exposure based on AUC0–inf: approximately 1.5 fold
  increase in plasma exposure based on AUC0–last: approximately 1.5 fold
  increase in plasma exposure based on Cmax: ~2.4 fold

## OCc1ncc2n1-c1ccc(Cl)cc1C(c1ccccc1F)=NC2 [1-hydroxymidazolam]
[1]; [17]
  effect of tucatinib on exposure based on AUC0–last and AUC0–inf: no effect
  reduction of Cmax: approximately 40%

## Cc1cc(Nc2ncnc3ccc(NC4=NC(C)(C)CO4)cc23)ccc1Oc1ccn2ncnc2c1 [Tucatinib]
[9]
  type of inhibition of CYP2C9: competitive inhibition
[8]
  clinical classification as inhibitor of P-glycoprotein: weak inhibitor
[8]; listed as tucatinib
  clinical classification as inhibitor of P-glycoprotein: only weakly inhibits
[2]; [22]
  increase in plasma exposure based on AUC0–inf: ~ 1.3 fold
  increase in plasma exposure based on AUC0–last: approximately 1.3 fold
  increase in plasma exposure based on Cmax: approximately 1.3 fold
[10]
  type of inhibition of P-glycoprotein (P-gp): competitive inhibition
[4]; [23]
  increase in plasma exposure based on AUC0–inf: ~3.0 fold
  increase in plasma exposure based on AUC0–last: approximately 3.0 fold
  increase in plasma exposure based on Cmax: ~1.6 fold
[7]; steady-state tucatinib 300 mg BID, tolbutamide probe
  impact on CYP2C9-mediated metabolism in humans: no impact
[1]
  clinical classification as inhibitor of CYP3A/CYP3A4: strong inhibitor
[1]; listed as tucatinib
  clinical classification as inhibitor of CYP3A/CYP3A4: strong CYP3A4 inhibitor
[11]; Part A
  participants with serum creatinine increases: 50%
[11]; Part B
  participants with serum creatinine increases: 4%
[11]; Part D
  participants with serum creatinine increases: 71%
[11]; Part E
  participants with serum creatinine increases: 54%
[11]; Parts A through E overall
  Grade 3 or higher events: No Grade 3 or higher events
  TEAEs considered Grade 1 (events): 65
  total number of TEAEs: 71
[11]; Parts A through E overall, 37 of 114 subjects
  subjects reporting TEAEs: 32.5%
[11]; Parts A–E, alone and with co-administered drugs
  tolerability: well tolerated
[11]; Parts D and E
  events of ALT elevation reported as Grade 1 TEAEs: five
  renal function by cystatin C levels: did not reveal any elevated values
[12]
  type of inhibition of CYP2C8: competitive inhibition
[13]
  inactivation of CYP3A: time/metabolism-dependent inactivation
  type of inhibition of CYP3A4: competitive inhibition
[6]
  clinical classification as inhibitor of CYP2C8: weak inhibitor
[6]; listed as tucatinib
  clinical classification as inhibitor of CYP2C8: only weakly inhibits
[5]; [24]
  decrease in plasma exposure based on AUC0–inf: 48%
  decrease in plasma exposure based on AUC0–last: approximately 48%
  decrease in plasma exposure based on Cmax: ~37%
[5]; tucatinib + rifampin vs tucatinib alone, listed as tucatinib
  decrease in plasma exposure based on AUC0–inf: approximately 48%
[14]
  tucatinib exposures by CYP2C8 metabolizer phenotype: similar
[15]
  impact of food on tucatinib exposures: no clinically relevant impact
